In patent publication US5484911A, “Nucleoside 5'-diphosphate conjugates of ether lipids” (Health Research, Inc., priority 1993, dated 1996):
Read-outs that look alike come from different tables or passages of the source.

Experiments:
[1] = tested on: HIV-1; assay: microbe, parasite or virus in culture; format: cell-based
Text: (§1) FIG. 3. Anti-HIV activity of AZTDP-DL-PTBA from the National Cancer Institute Developmental Therapeutics Program In-Vitro Testing Results; NSC 648540-S/1; Plate 5440; Lab 9N; SSPL:129N; Primary Screen Assay; Test Date, Jan. 21, 1992; Solubility Ind.: 1; Report Date, Apr. 27, 1992; Cell Line, CEM-IW; Solvent: Saline<0.9% (MEDIA).
as §1, with “4.” for “3.”, “AZddUDP-DL-PTBA” for “AZTDP-DL-PTBA”, “NSC: 648541-T/1;” for “NSC 648540-S/1;”, “5466;” for “5440;”, “SSPL: 129N;” for “SSPL:129N;”, “Line:” for “Line,”
(§2) FIG. 5. Anti-HIV activity of ddCDP-DL-PTBA from the National Cancer Institute Developmental Therapeutic Program In-Vitro Testing Results; NSC: D- 652872-A/1; Plate 24; Lab 9N; Primary Screen Assay; Test Date, Jul. 23, 1992; Solubility Ind.: 1; Report Date: Aug. 7, 1992; Cell Line: CEM-IW; Solvent: Saline<0.9% (MEDIA).
(§3) FIG. 6. Anti-HIV activity of AZTDP-DL-PMA from the National Cancer Institute Developmental Therapeutics Program In-Vitro Testing Results; NSC: D- 652873-C/1; Plate 24; Lab 9N; SSPL: 129N; Primary Screen Assay; Test Date, Jul. 23, 1992; Solubility Ind.: 1; Report Date, Sep. 11, 1992; Cell Line: CEM-IW; Solvent: Saline<0.9% (MEDIA).
Anti-HIV evaluation for the compounds was performed at the National Cancer Institute, National Institute of Health and is presented in FIGS. 3-6.
(§4) The procedure is designed to detect agents acting at any stage of the virus reproductive cycle (Weislow, et al., J. Natl. Cancer Inst. 81, 577, 1989). The assay basically involves the killing of T4 lymphocytes by HIV. Small amounts of HIV are added to cells, and a complete cycle of virus reproduction is necessary to obtain the required cell killing. Agents that interact with virions, cells, or virus gene-products to interfere with viral activities will protect cells from cytolysis. Compounds that degenerate or are rapidly metabolized in the culture conditions may not show activity in this screen. All tests are compared with at least one positive (e.g., AZT-treated) control done at the same time under identical conditions.
(§5) Compound was dissolved in DMSO then diluted 1:100 in cell culture medium before preparing serial half-log10 dilutions. T4 lymphocytes (CEM cell line) were added and after a brief interval HIV-1 was added, resulting in a 1:200 final dilution of the compound. Uninfected cells with the compound served as a toxicity control, and infected and uninfected without the compound served as basic controls. Cultures were incubated at 37° C. in a 5% CO2 atmosphere for 6 days. The tetrazolium salt, XTT, was added to the wells, and cultures were incubated to allow formazan color development by viable cells. Individual wells were analyzed spectrophotometrically to quantitate formazan production, and in addition were viewed microscopically for detection of viable cells and confirmation of protective activity. Drug-treated virus-infected cells were compared with drug-treated noninfected cells and with other appropriate controls (untreated infected and untreated noninfected cells, drug-containing wells without cells, etc.) on the same plate. Data were reviewed in comparison with other tests done at the same time and a determination about activity was made.

[2] = Cytotoxicity to uninfected CEM cells (toxicity control of the anti-HIV assay); format: cell-based; conditions: human
Text: as §1
as §1, with “4.” for “3.”, “AZddUDP-DL-PTBA” for “AZTDP-DL-PTBA”, “NSC: 648541-T/1;” for “NSC 648540-S/1;”, “5466;” for “5440;”, “SSPL: 129N;” for “SSPL:129N;”, “Line:” for “Line,”
as §2, §3, §4, §5

[3] = tested on: L1210 lymphoid leukemia; assay: In vivo test against i.p. implanted L1210 lymphoid leukemia in DBA/2J mice
Experimental: AZTDP-DL-PTBA was also tested for in vivo cytotoxicity against i.p. implanted L1210 lymphoid leukemia (10^6 cells) in DBA/2J mice.

[4] = in vivo; parameters: species or system Female NIH-Swiss mice; conditions: mouse, ip, 394 mg/kg
Experimental: FIG. 7. Mouse serum concentration of AZT following administration of AZT or AZTDP-DL-PTBA Female NIH-Swiss mice weighing 25-30 g were administered i.p. with AZT (100 mg/kg) or AZTDP-DL-PTBA (394 mg/kg, equivalent to 100 mg/kg AZT). Three mice were sacrificed at the designated time (up to 24 hr) and AZT in the serum was analyzed by a HPLC method.
Female NIH-Swiss mice weighing 25-30 g were administered intraperitoneally (i.p.) with 394 mg/kg of AZTDP-DL-PTBA (equivalent to 100 mg/kg AZT). Three mice were sacrificed at the designated time (up to 24 hours) and AZT in the serum was analyzed by an HPLC method. […] The intact conjugate level in the serum was unable to be checked by the HPLC method.

[5] = Solubility in water; format: physicochemical
Experimental: Solubility of AZTDP-DL-PTBA in water is only 0.58 mM. Thus, the compounds in the present invention were formulated in a micellar solution by sonication for the biological testings such as anti-HIV screenings. The compound was suspended in sterile water and then sonicated using a Branson Sonifier Cell Disruptor 200 at control 2-3 for 5 min (temp 20°-60° C.). The solution was sterile-filtered through a 0.22 μm membrane filter into a sterile receiving container under a laminar flow cabinet. The compound was existed as micelles and the micellar solution was stored in a refrigerator.

With `CCCCCCCCCCCCCCCCCCSCC(COP(=O)(O)OP(=O)(O)OC[C@H]1O[C@@H](n2cc(C)c(=O)[nH]c2=O)C[C@@H]1N=[N+]=[N-])OC(=O)CCCCCCCCCCCCCCC` (mixture of isomers) [AZTDP-DL-PTBA] the “concentration at which protection was lost” value ([1]; HIV-infected CEM cells) was 180 µM, the viability at 0.58 µM ([1]; Human immunodeficiency virus 1, CCRF-CEM, at as low as 5.80×10^-7 M, read-out: protected HIV-infected CEM cells) was 80% and the viability at 180 µM ([1]; Human immunodeficiency virus 1, CCRF-CEM, dose 1.80 × 10^-4 Molar (Tables 1, 2), read-out: INFECTED RESPONSE Percent of Control) was 1.53%. It also gave a viability at 18 µM ([1]; Human immunodeficiency virus 1, CCRF-CEM, dose 1.80 × 10^-5 Molar (Tables 1, 2), read-out: INFECTED RESPONSE Percent of Control) of 110%, a viability at 1.8 µM ([1]; Human immunodeficiency virus 1, CCRF-CEM, dose 1.80 × 10^-6 Molar (Tables 1, 2), read-out: INFECTED RESPONSE Percent of Control) of 95.6% and a viability at 580 µM ([1]; Human immunodeficiency virus 1, CCRF-CEM, dose 5.80 × 10^-4 Molar (Tables 1, 2), read-out: INFECTED RESPONSE Percent of Control) of 0.57%. It also gave a viability at 58 µM ([1]; Human immunodeficiency virus 1, CCRF-CEM, dose 5.80 × 10^-5 Molar (Tables 1, 2), read-out: INFECTED RESPONSE Percent of Control) of 122%, a viability at 5.8 µM ([1]; Human immunodeficiency virus 1, CCRF-CEM, dose 5.80 × 10^-6 Molar (Tables 1, 2), read-out: INFECTED RESPONSE Percent of Control) of 98.1% and a viability at 0.58 µM ([1]; Human immunodeficiency virus 1, CCRF-CEM, dose 5.80 × 10^-7 Molar (Tables 1, 2), read-out: INFECTED RESPONSE Percent of Control) of 81.6%. For the same compound, the Conclusion ([1]; NCI screen conclusion, Tables 1-4) was “CONFIRMED ACTIVE”, the “conclusion / reported as anti-HIV drug” value ([1]; NCI screening results) was “active” and the “in vitro anti-HIV activity” value ([1]; result in words) was “strong in vitro anti-HIV activity”. The MCC ([2]; cem cells, read-out: concentration at which the compound started to show the cytotoxicity) was 100 µM, the viability at 180 µM ([2]; uninfected cem cells, dose 1.80 × 10^-4 Molar (Tables 1, 2), read-out: UNINFECTED RESPONSE Percent of Control) was 0.9% and the viability at 18 µM ([2]; uninfected cem cells, dose 1.80 × 10^-5 Molar (Tables 1, 2), read-out: UNINFECTED RESPONSE Percent of Control) was 106%. The viability at 1.8 µM ([2]; uninfected cem cells, dose 1.80 × 10^-6 Molar (Tables 1, 2), read-out: UNINFECTED RESPONSE Percent of Control) was 98.7%, the viability at 580 µM ([2]; uninfected cem cells, dose 5.80 × 10^-4 Molar (Tables 1, 2), read-out: UNINFECTED RESPONSE Percent of Control) was -0.54% and the viability at 58 µM ([2]; uninfected cem cells, dose 5.80 × 10^-5 Molar (Tables 1, 2), read-out: UNINFECTED RESPONSE Percent of Control) was 113%. For the same compound, the viability at 5.8 µM ([2]; uninfected cem cells, dose 5.80 × 10^-6 Molar (Tables 1, 2), read-out: UNINFECTED RESPONSE Percent of Control) was 95.9%, the viability at 0.58 µM ([2]; uninfected cem cells, dose 5.80 × 10^-7 Molar (Tables 1, 2), read-out: UNINFECTED RESPONSE Percent of Control) was 97% and the CC50 ([2]; CEM cells, read-out: cytotoxicity (IC50)) was 110 µM. For the same compound, the CC50 at 144 h ([2]; uninfected CEM-IW cells, 6 days, XTT, Tables 1-4, read-out: 1C50(Molar) (cytotoxicity)) was 110 µM, the “% ILS (increase in life span)” value ([3]; 100-300 mg (95-285 μmole)/kg, L1210 10^6 cells i.p.) was 0% and the Toxicity ([3]; 100-300 mg/kg, leukemic mice) was “Toxicity as reflected in weight loss was observed”. It also gave a half-life [4] of 7.85 h and a solubility [5] of 580 µM.
